Where two headings read alike, the source gives them in different places.
Columns and labels:
[1] = system: mTOR signaling in Flp-In T-REx 293 FKBP12 V55G cells; test: mTOR signaling by Western blot in FKBP12 V55G-expressing Flp-In 293 cells; assay type: cell-based, human; conditions: for IC50: Homo sapiens, 24 h treatment, mutant (FKBP12 V55G) 293 cells
Description: All cell lines were maintained in DMEM (Gibco) supplemented with 10% heat-inactivated FBS (Axenia Biologix) at 37 °C in 5% CO2. Flp-In T-REx 293 cells were obtained from Thermo Fisher supplemented with 15 µg/mL blasticin and 100 µg/mL Zeocin. Flp-In T-REx 293 FKBP12 V55G cells were supplemented with 15 µg/mL blasticin and 150 µg/mL hygromycin B. FKBP12 V55G expression was induced with 1 µg/mL doxycycline 24 h prior to drug treatments. MCF7 cells were obtained from ATCC (American Type Culture Collection), and MCF7 mTOR F2108L cells were described previously ([30]). When indicated, cells were treated with drugs at 60–80% confluency at a final DMSO concentration of 0.1%. At the end of the treatment period, cells were placed on ice and washed once with PBS. Cells were scraped with a spatula and lysed in radioimmunoprecipitation assay (RIPA) buffer supplemented with protease and phosphatase inhibitors (cOmplete and phosSTOP, Roche) on ice for 5 min. Lysates were clarified by high-speed centrifugation. Lysate concentration was determined by Bradford assay (Thermo Fisher) and adjusted to 2 mg/mL with additional RIPA buffer. Samples were mixed with 5x SDS loading dye and heated at 95 °C for 5 min.
SDS-PAGE was run with Novex 4–12% Bis-Tris gel (Invitrogen) in MOPS running buffer at 200V for 40 min. Samples were loaded at 20 µg lysate per lane. Protein bands were transferred onto 0.2 µm nitrocellulose membranes (Bio-Rad) using wet tank transfer apparatus (Bio-Rad Criterion Blotter) in 1x TOWBIN buffer with 10% methanol at 75V for 45 min. Membranes were blocked in 5% BSA-TBST (tris-buffered saline, 0.1% Tween 20) for 1 h at room temperature. Membranes were cut into separate strips for each primary antibody. Primary antibody binding was performed with the indicated antibodies at manufacturer’s recommended dilution in 5% BSA-TBST at 4 °C overnight. After three 5 min. washes with TBST, secondary antibodies (Li-COR) were added as solutions in 5% skim milk-TBST at 1:10,000 dilutions. Secondary antibodies were incubated for 1 h at room temperature. Following three 5 min. washes with TBST, membranes were imaged on a Li-COR Odyssey fluorescence imager. Image contrast was adjusted independently for each strip using the “Auto” adjustment function in Fiji. Blot quantification was performed in Fiji, and data were graphed and fit in Prism 9 (GraphPad). The following primary antibodies were obtained from Cell Signaling Technology (CST), Abcam (ab), and ProteinTech (PT): S6 (CST 2317), phospho-S6 S240/244 (CST 5364), S6K (CST 2708), phospho-S6K T389 (CST 9206), Akt (CST 2920), phospho-Akt S473 (CST 4060), HA (CST 3724), FKBP12 (ab58072), and GAPDH (PT 60004). For detection of phosphorylated and total protein, primary antibodies for phospho-Akt/Akt, phospho-S6K/S6K, or phospho-S6/S6 were combined and detected using a mixture of species-specific secondary antibodies with orthogonal fluorescence to allow simultaneous detection of phosphorylated and total protein from a single membrane, or membrane was stripped (Cell Signaling Technology) after detection of phosphorylated protein and then reblocked and reprobed with primary antibody for total protein. […]
Generation of 293 Flp-In T-REx FKBP12 V55G cell line
FKBP12 V55G-expressing Flp-In T-REx 293 cells were generated using recommended conditions from Thermo Fisher. Briefly, human FKBP12 V55G-HA coding sequence was cloned into the pcDNA5/FRT/TO targeting vector by Gibson assembly. […]

[2] = system: Flp-In 293 cells with and without FKBP12 V55G-HA; test: Cell growth by CellTiter-Glo in Flp-In 293 cells; assay type: cell-based, human; conditions: 72 h treatment
Description: All cell lines were maintained in DMEM (Gibco) supplemented with 10% heat-inactivated FBS (Axenia Biologix) at 37 °C in 5% CO2. Flp-In T-REx 293 cells were obtained from Thermo Fisher supplemented with 15 µg/mL blasticin and 100 µg/mL Zeocin. […] When indicated, cells were treated with drugs at 60–80% confluency at a final DMSO concentration of 0.1%.
Cells were seeded into 96-well tissue-culture treated plates (Greiner) and were allowed to incubate for 24 h. Cells were treated with indicated compounds and incubated for 72 h (100 µL final well volume, 0.1% DMSO). Cell viability was assessed by CellTiter-Glo (Promega). Assay reagent was diluted 1:4 in PBS containing 1% Triton X-100, and 100 µL was added to each well and mixed on a plate shaker for 20 min. Luminescence was measured on a Tecan Spark 20M.

[3] = system: Drosophila larvae (w1118 control and FKBP12 V55G transgenic); test: Drosophila larval development (pupae 9 d after egg laying); assay type: in vivo
Description: All Drosophila stocks and crosses were maintained on standard cornmeal-molasses food at 25 °C using a 12-h light/dark cycle. To generate UAS-FKBP12 V55G-HA transgenic lines, human FKBP12 V55G-HA ORF was cloned into a pUAST-attB vector between EcoR-I and Xho-I restriction sites. This construct was then integrated into an attB site using phiC31 integrase with the assistance of Rainbow Transgenic Flies, Inc. The driver stocks da-GAL4 (ubiquitous), elav-GAL4 and nSyb-GAL4 (neuronal-specific), Mef2-GAL4 and mhc-GAL4 (musculature), and 2–286-GAL4 and phm-GAL4 (ring-gland-specific) were obtained from Bloomington Drosophila Stock Center. The crossing schemes used in this study are depicted in SI Appendix, Fig. S11. For rapamycin or Rapa*3Z related experiments, fly food was prepared freshly 24 h before each experiment.
Fly food containing ethanol vehicle was used as control. […] Three biological replicates were used for each experiment. Data were analyzed using Prism 9.0 (GraphPad).

[4] = PAMPA membrane permeability; assay type: in vitro ADME; conditions: 100 µM in PBS, LC-MS
Description: PAMPA and Caco-2 membrane permeability assays
PAMPA was performed by Quintara Discovery as described previously (2). Compounds were
analyzed at 100 µM in PBS and measured using liquid chromatography-mass spectrometry (LC-

With CCO/N=C1/C[C@@H]([C@H](C)C[C@@H]2CC[C@@H](O)[C@H](OC)C2)OC(=O)[C@@H]2CCCCN2C(=O)C(=O)[C@]2(O)O[C@@H](CC[C@H]2C)C[C@H](OC)/C(C)=C/C=C/C=C/[C@@H](C)C[C@@H](C)C(=O)[C@H](OC)[C@H](O)/C(C)=C/[C@H]1C [Rapa*-3Z] the “Time to half-maximal inhibition of S6 phosphorylation” value ([1]; 10 nM, mutant FKBP12 293 cells) was 31 min, the “Akt phosphorylation (mTORC2 substrate)” value ([1]; 24 h, mutant vs wild-type 293 cells) was “selectively reduced Akt phosphorylation in the mutant 293 cells at higher doses” and the IC50 ([1]; read-out: IC50 phospho-S6) was 1.3 nM. For the same compound, the IC50 ([1]; read-out: IC50 phospho-S6K) was 1 nM, the “Increase in sensitivity in mutant-expressing cells vs wild-type cells” value ([1]; p-S6K and p-S6 IC50s, 24 h) was about 100 fold and the “Cell growth inhibition, 293 cells with and without FKBP12 V55G” value [2] was “selectively inhibited growth of mutant-expressing 293 cells”. For the same compound, the “Larval-to-pupal transition, FKBP12 V55G in ring gland (independent driver)” value ([3]; 2-286-GAL4, 100 µM, 9 d) was “nearly eliminated the larval-to-pupal transition”, the “Dose necessary for complete inhibition of larval development” value ([3]; FKBP12 V55G animals (ubiquitous da-GAL4), in food, 9 d after egg laying) was 100 µM and the “Larval-to-pupal transition, FKBP12 V55G in musculature and nervous system (independent drivers)” value ([3]; Mef2-GAL4 and elav-GAL4, 100 µM, 9 d) was “significant, but lesser, inhibition”. For the same compound, the “Effect on larval development, ubiquitous FKBP12 V55G expression” value ([3]; da-GAL4 > FKBP12 V55G, 100 µM) was “potently inhibited larval development”, the “Pupal formation, FKBP12 V55G in musculature and nervous system” value ([3]; mhc-GAL4 and nSyb-GAL4, 100 µM, 9 d after egg laying) was “similar, but less severe, inhibition of pupal formation” and the “Pupal formation, FKBP12 V55G in ring gland” value ([3]; phm-GAL4, 100 µM, 9 d after egg laying) was “failed to pupate”. The “Effect on larval development in control flies at 300 and 400 µM” value ([3]; w1118, 300 and 400 µM, 14 days after egg laying) was “no influence on larval development”, the “Effect on larval development in wild-type animals” value ([3]; wild-type (w1118) larvae, compound in food) was “no effect” and the Papp at 5 h, 100 µM [4] was 0.053 ×10⁻⁶ cm/s.

Reference: article PMC9499525, “Tissue-restricted inhibition of mTOR using chemical genetics” (Proceedings of the National Academy of Sciences of the …, 2022)
